# In ChEMBL document CHEMBL1201862, “PubChem BioAssay data set” (2004):
# Activity calls are given as the source filed them.
# How the values were obtained:
# [1] = target: T1, Short transient receptor potential channel 4 (Mus musculus, UniProt Q9QUQ5); assay: mouse TRPC4 channel activators, dose response, cell-based, HEK293 TRPC4/mu-opioid, Fluo-4 calcium (AID 434937); type: functional
# T1 sequence (Q9QUQ5 whole entry): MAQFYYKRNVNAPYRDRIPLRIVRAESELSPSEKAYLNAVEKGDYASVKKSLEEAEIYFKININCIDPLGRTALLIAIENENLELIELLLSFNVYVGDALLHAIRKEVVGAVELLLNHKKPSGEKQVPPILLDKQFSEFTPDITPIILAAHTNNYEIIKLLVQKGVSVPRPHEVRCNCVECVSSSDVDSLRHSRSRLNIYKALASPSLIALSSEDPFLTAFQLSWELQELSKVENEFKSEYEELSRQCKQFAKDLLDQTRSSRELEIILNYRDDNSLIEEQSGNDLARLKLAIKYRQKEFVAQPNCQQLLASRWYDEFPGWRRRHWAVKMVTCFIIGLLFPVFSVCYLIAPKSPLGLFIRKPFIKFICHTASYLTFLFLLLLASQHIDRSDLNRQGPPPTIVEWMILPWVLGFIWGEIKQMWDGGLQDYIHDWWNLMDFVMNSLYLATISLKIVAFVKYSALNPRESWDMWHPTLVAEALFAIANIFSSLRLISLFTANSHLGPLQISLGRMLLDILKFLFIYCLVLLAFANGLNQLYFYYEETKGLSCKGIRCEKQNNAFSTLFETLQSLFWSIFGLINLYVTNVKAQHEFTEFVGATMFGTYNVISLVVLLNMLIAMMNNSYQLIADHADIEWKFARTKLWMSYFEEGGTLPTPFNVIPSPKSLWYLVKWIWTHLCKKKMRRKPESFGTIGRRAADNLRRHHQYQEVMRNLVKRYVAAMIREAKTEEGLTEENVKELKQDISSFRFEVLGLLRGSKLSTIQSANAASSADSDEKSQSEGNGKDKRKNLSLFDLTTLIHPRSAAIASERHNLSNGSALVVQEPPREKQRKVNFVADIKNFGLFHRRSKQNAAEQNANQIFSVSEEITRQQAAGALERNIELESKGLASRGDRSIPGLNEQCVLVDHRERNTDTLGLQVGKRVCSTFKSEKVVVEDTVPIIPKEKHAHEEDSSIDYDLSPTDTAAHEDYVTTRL
# [2] = target: T2, High affinity choline transporter 1 (Homo sapiens, UniProt Q9GZV3); assay: CHT inhibitors, dose response, cell-based, 5-point CRC, membrane potential dye (AID 504840); type: functional
# T2 sequence (Q9GZV3 whole entry): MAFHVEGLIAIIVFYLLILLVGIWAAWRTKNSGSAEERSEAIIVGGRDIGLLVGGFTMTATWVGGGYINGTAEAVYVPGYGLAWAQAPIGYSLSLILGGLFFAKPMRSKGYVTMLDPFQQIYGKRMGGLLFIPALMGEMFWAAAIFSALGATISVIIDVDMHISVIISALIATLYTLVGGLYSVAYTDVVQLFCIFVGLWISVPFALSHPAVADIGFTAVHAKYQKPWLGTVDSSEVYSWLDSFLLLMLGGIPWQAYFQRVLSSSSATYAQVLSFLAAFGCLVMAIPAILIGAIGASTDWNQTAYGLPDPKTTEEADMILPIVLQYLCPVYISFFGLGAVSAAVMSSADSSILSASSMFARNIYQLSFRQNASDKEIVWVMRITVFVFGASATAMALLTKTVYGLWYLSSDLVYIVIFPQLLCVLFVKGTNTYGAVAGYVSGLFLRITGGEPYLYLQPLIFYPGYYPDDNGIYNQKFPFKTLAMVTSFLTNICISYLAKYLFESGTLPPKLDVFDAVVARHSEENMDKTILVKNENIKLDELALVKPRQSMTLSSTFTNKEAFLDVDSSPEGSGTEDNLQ
# [3] = target: T3, Sentrin-specific protease 8 (Homo sapiens, UniProt Q96LD8); type: functional
# T3 sequence (Q96LD8 whole entry): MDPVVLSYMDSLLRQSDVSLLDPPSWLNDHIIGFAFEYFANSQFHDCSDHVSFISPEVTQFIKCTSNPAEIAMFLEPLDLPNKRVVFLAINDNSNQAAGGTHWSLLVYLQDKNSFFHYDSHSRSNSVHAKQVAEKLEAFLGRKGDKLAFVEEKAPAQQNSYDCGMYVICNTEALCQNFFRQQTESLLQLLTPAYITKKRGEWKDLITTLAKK
# [4] = target: T3, Sentrin-specific protease 8; type: functional; remark: listed apart in the source
# Genome polyprotein = Genome polyprotein (dengue virus type 2, UniProt P29990); assay: Dengue-2 NS5 methyltransferase inhibitors, primary screen, biochemical, confirmation dose response (AID 588689); type: functional
# Genome polyprotein, sequence (P29990 2492-3391 limits assumed): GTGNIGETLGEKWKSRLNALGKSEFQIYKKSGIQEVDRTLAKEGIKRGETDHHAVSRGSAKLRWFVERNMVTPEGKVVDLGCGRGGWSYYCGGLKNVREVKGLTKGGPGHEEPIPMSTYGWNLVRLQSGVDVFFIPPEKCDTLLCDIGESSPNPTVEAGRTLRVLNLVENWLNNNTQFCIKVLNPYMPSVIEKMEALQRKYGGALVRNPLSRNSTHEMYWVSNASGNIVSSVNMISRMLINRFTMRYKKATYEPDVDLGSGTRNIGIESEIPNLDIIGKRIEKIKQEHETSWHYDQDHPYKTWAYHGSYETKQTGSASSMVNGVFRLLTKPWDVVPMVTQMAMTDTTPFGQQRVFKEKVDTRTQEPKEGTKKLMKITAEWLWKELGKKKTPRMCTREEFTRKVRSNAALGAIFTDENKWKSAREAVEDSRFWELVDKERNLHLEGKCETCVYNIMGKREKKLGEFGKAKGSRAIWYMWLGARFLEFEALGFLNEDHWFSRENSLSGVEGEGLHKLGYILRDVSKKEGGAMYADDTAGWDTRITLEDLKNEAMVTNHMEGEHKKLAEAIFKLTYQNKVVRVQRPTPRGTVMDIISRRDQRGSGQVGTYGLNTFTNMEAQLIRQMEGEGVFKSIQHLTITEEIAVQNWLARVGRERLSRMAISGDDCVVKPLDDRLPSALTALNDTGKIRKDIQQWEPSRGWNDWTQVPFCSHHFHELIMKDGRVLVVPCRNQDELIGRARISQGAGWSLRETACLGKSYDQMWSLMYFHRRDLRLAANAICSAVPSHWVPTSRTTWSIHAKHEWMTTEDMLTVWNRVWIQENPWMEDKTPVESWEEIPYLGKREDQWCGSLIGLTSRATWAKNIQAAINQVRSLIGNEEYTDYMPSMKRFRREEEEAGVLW
# [5] = target: T4, Corticotropin-releasing factor receptor 2/Corticotropin-releasing factor-binding protein (Homo sapiens, UniProt P24387+Q13324); assay: Dose Response confirmation of uHTS hits for small molecule antagonists of the CRF-binding protein and CRF-R2 receptor complex.; type: functional; conditions: read-out: IC50_Mean
# T4 sequence (Q13324 whole entry): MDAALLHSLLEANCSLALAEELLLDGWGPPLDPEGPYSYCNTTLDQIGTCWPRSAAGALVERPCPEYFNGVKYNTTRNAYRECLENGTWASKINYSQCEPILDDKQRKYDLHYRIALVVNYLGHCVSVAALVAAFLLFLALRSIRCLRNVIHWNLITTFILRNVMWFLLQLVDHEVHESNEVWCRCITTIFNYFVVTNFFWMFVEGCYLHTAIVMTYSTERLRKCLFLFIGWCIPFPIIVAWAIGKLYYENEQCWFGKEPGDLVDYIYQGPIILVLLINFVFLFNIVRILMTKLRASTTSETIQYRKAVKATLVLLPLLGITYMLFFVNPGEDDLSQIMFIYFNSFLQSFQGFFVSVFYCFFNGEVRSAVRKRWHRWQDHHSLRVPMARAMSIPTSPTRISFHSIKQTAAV
# T4 sequence (P24387 whole entry): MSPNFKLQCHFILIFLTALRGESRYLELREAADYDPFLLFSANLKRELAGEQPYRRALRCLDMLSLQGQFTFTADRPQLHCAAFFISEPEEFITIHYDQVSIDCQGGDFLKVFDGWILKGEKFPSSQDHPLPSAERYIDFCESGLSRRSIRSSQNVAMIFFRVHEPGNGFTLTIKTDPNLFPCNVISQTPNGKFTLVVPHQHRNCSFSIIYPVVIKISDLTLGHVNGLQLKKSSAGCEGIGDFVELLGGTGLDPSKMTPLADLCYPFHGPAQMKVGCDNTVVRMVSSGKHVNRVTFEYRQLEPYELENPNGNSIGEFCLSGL
# [6] = target: T4, Corticotropin-releasing factor receptor 2/Corticotropin-releasing factor-binding protein; assay: activators of CRF receptor 2 with binding protein – uHTS hits, confirmation (AID 602473); type: functional; conditions: read-out: EC50_Mean
# [7] = CRF-BP/CRF-R2 complex antagonists, dose response, cell-based, uHTS hits, 384-well (AID 651639); type: functional, Homo sapiens; conditions: read-out: IC50_Mean
# [8] = target: Ras and Rab interactor 1/Tyrosine-protein kinase ABL1 (Homo sapiens, UniProt P00519+Q13671); type: functional;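 note: biochemical TR-FRET dose-response test measuring inhibition of binding between Rin1 and Abl proteins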
# Ras and Rab interactor 1/Tyrosine-protein kinase ABL1, sequence (P00519 whole entry): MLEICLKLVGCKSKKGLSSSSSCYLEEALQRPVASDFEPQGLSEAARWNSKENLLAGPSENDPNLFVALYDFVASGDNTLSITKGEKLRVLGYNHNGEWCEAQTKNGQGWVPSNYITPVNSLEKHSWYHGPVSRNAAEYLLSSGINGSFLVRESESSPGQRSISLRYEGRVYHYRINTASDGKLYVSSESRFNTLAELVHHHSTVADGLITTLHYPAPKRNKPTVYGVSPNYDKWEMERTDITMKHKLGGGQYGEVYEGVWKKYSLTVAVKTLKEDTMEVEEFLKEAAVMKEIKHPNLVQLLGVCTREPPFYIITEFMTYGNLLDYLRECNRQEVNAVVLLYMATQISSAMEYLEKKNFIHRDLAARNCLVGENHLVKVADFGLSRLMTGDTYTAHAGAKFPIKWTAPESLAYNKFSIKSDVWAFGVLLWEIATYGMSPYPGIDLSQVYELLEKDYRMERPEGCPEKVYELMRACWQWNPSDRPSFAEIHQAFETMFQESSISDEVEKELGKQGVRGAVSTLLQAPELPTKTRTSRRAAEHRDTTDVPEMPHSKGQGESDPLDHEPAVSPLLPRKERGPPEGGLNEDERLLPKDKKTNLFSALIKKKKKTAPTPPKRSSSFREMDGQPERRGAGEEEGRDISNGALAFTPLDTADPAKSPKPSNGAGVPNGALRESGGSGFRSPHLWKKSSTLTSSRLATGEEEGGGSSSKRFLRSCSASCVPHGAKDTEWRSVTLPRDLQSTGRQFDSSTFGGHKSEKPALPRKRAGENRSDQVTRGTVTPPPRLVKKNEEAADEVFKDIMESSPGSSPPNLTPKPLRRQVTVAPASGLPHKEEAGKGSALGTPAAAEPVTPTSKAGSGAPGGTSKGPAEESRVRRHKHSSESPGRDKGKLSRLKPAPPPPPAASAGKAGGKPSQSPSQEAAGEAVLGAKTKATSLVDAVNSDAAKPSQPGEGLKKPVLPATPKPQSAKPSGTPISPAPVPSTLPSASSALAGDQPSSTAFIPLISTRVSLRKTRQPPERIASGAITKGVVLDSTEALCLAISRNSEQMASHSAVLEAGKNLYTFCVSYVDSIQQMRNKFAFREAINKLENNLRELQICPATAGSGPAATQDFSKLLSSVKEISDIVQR
# Ras and Rab interactor 1/Tyrosine-protein kinase ABL1, sequence (Q13671 whole entry): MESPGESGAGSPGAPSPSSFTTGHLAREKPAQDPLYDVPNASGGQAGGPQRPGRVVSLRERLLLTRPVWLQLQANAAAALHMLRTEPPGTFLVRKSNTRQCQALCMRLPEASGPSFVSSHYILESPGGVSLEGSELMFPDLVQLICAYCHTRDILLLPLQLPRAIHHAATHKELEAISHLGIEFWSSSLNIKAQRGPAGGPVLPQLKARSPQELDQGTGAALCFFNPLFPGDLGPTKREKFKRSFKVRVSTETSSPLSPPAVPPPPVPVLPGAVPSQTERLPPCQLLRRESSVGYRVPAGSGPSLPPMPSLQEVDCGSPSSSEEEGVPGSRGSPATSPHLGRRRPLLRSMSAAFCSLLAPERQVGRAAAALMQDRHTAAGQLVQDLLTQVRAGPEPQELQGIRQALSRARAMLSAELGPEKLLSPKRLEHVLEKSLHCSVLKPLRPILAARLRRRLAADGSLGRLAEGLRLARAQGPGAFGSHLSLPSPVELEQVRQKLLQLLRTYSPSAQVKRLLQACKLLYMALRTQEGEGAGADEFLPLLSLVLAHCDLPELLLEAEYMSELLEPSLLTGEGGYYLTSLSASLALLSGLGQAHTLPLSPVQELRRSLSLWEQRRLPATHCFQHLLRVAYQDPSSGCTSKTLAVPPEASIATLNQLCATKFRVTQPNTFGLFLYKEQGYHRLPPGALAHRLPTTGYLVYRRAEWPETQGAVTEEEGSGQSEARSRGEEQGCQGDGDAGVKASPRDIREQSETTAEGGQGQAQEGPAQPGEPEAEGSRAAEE
smiles,measurement,setting,value
CC1CC(C)CN(CCCNC(=O)c2nn(C)c3c2CS(=O)(=O)c2ccccc2-3)C1 (centres undefined),EC50,[1],0.237 µM (active)
Cc1ccc(NC(=O)c2ccc(CN3CC(=O)N4CCCCC4C3=O)cc2)c(C)c1 (centres undefined),IC50,[2],4.47 µM (active)
CC(C)N1C(=O)CCC1C(=O)N1CCCc2ccccc21 (centres undefined),IC50,[3],> 100 µM (inactive)
same,IC50,[4],9.12 µM (active)
O=c1c(Sc2ccccc2)c(C(F)(F)F)[nH]n1-c1ccccc1,IC50,Genome polyprotein,59.5 µM (active)
same,IC50,[5],22.3 µM (active)
same,EC50,[6],> 53 µM (inactive)
same,IC50,[7],> 20 µM (inactive)
CC(C)c1ccc(NC(=O)CSc2nnc(CN3CCOCC3)n2C)cc1,IC50,[8],14.2 µM (inactive)
